From US8747740B2, “Process and apparatus for generating haloamine biocide” (Hercules Incorporated, priority 2007, dated 2014)

Test: Stability of chloramine in aqueous solution
Assay type: physicochemical
Settings: pH of about 10 to about 11; partially decomposes at higher concentrations or lower pH

NCl [chloramine, Monochloramine]
concentration up to which chloramine is stable: up to 1,000 ppm
